Test results reported in patent publication US5744424A.
≈ marks a conversion by molar mass, not a printed value. One block for each compound: values may come before it.

Columns and labels:
[1] = water; 18° C.; cited from earlier work
plant species = settings: cited from earlier work
physchem [2] = test: physchem
Description: where Percent "S" is the per unit volume of N^6 BA expressed as a percentage and "N" is the Normality of the solution after dissolution of N^6 BA in the solution.

turf grasses = test: Force required to extract grass sod plugs (root density, FIG. 4)
[3] = cited from earlier work
physchem [4] = settings: water koh 0.0025 n
Description: The solubility data enable address a second underlying problem encountered when the aqueous hydroxide solution is employed.

[5] = cited from earlier work; remark: listed apart in the source

Compound: [Ca+2].[OH-].[OH-] [Calcium hydroxide]
normality of saturated solution [1]: 9.6

Compound: [K+].[OH-] [KOH, potassium hydroxide]
normality of saturated solution [1]: 18.0

solubility (physchem [2]; aqueous koh 2.875 n): ~455 mg/mL (≈ 2020 mM)
solubility (physchem [2]; koh in 95% ethanol, organic solvent or mixture): ~540 mg/mL (≈ 2400 mM)
solubility (physchem [4]): 0.062 mg/mL (≈ 0.275 mM)
Compound: c1ccc(CNc2ncnc3nc[nH]c23)cc1 [N^6 BA]
responses elicited in plants (plant species; general): promotion of cell division, inhibition of respiration, increasing retention of water and drought resistance, enhancing root and top growth with change in root/top ratios as well as shortening plant internodes
chlorophyll retention (plant species; pre and post harvest commodities): increase chlorophyll retention
efficacy of N^6 BA in presence of iron (turf grasses; large amount of ferrous iron ions): a decrease in the efficacy of N^6 BA
dissolved concentration in mineral acids ([3]; mineral acids): approximately 5%
solubility in water ([3]; water): about 0.00044 grams per 100 milliliters

Compound: [Na+].[OH-] [NaOH, sodium hydroxide]
normality of saturated solution [1]: 21.0

Compound: O.O.O.O.O.O.O.O=S(=O)([O-])[O-].[Fe+2] [iron, Ferrous sulphate heptahydrate]
root development (turf grasses; iron to N^6 BA molecular ratio of about 200:1 or greater): substantially decreases root development
practical concentration of iron in liquid spray concentrates [5]: 5-6%

Compound: [Mg+2].[OH-].[OH-] [magnesium hydroxide]
normality of saturated solution [1]: 8.2

Compound: [OH-].[OH-].[Zn+2] [zinc hydroxide]
normality of saturated solution [1]: 9.4
